# Measurements from patent US20080039508A1, “Treatment Of Tumours” (AQ+PLC, priority 2004, published 2008).
smiles,measurement,value
Oc1cccc2cccnc12 [8-hydroxyquinoline],solubility in aqueous solution,generally insoluble or only poorly soluble
